Measurements published in patent publication US7550425B2, “Diuretic peptide conjugates” (Zealand Pharma A/S, priority 2000, dated 2009).
Read-outs that look alike come from different tables or passages of the source.

Legend:
[1] = In vitro stability in heparin stabilised mouse plasma; assay type: in vitro ADME; conditions: heparinised mouse plasma, 37° C., read-out: half-life t½ of degradation
Protocol: Degradation of peptides is almost exclusively seen in the presence of enzymes, e.g. in the bloodstream. An important feature of a putative drug is whether it is quickly degraded in vivo or whether it is able to conduct its effects over a longer period of time. To be able to examine the stability of the peptide conjugates of the present invention degradation was tested in heparin stabilised mouse plasma (obtained from Harlan Seralab, UK).
The stability studies were run in triplicate. 100 μL of a 1 mg/mL solution of the test compound (peptide conjugate) was added to an Eppendorf tube, containing 900 μL plasma, incubated at 37° C. Immediately after addition, a sample of 100 μL was removed and added to an Eppendorf tube, containing 10 μL of extraction solution (50% TFA (trifluoroacetic acid) in MeCN, v/v). This sample constitutes t=0. […] The samples are centrifuged at 20,000×g, and the supernatant was transferred to vials and analysed by high-performance liquid chromatography (HPLC).
The analysis was performed on a HP1100 HPLC with a quaternary pump. The column used was a Vydac 201SP5215, and the apparatus comprises an autosampler, a column oven, a variable UV detector and a fluorescence detector. […] These values were transferred to Microsoft Excel, where half-lives (t½) and rate constant (kobs) for Ac-RYYRWK-NH2 (SEQ ID NO: 1) and Compound 1 were determined by fitting to the equation.

mouse vas deferens = assay: Mouse vas deferens assay: inhibition of electrically-induced contraction; conditions: cumulative addition; data not shown
Source text: The compounds of the present invention are pharmacologically active, e.g. as nociceptin agonists or partial agonists, and a useful method of showing activity is described by Hughes J., Kosterlitz H. W., Leslie F. M.: Effect of morphine on adrenergic transmission in the mouse vas deferens. Assessment of agonist and antagonist potencies of narcotic analgesics^[4]. The isolated electrically stimulated mouse vas deferens preparation has been widely used to evaluate the functional pharmacological actions of opioid agonists and antagonists in vitro^[5].
The vas deferens from male NMRI albino mice weighing 30-40 g were placed in a SCHULER organ bath Type 809, Hugo Sachs Elektronik, Germany, and perfused with a 37° C., modified Krebs solution (NaCl 6,9 g/L, KCl 0.35 g/L, KH2PO4 0.16 g/L, NaHCO3 2.1 g/L, Glucose H2O 2.0 g/L, CaCl2 2.52 mL/L). The solution was gassed with carbogen (95% O2 and 5% CO2) throughout the experiment. The tissue was electrically stimulated through two silver electrodes directly in the organ bath using a HSE Stimulator I Type 215. Stimulation of the tissue was performed by applying a supramaximal voltage (15 Volts) in trains of 10 square pulses every 60 s, each of 1 ms duration with a frequency of […]. Concentration-response curves were performed by adding test substances that relax mouse vas deferens smooth muscles cumulatively to the organ baths. The test substances used in the assay were nociceptin in an isotonic saline solution, Compound 1 (as the trifluoroacetate in an isotonic saline solution), Compound 2 (as the trifluoroacetate in an isotonic saline solution), and the hexapeptide Ac-RYYRWK-NH2 (SEQ ID NO: 1) (as the trifluoroacetate in an isotonic saline solution).

[2] = tested on: opioid (non-selective opiate, δ, κ, μ), vasopressin (V1a, V1b, V2) and 40 other receptor, uptake and ion channel binding sites; assay: Receptor, uptake and ion channel binding panel; conditions: 0.1, 10 and 1000 nM (opioid, vasopressin); 10 μM (other sites)
Protocol: In addition, Compound 1 has been tested in 5 opioid (non-selective opiate, δ, κ, μ, &ORL1), 3 vasopressin (V1a, V1b and V2) receptor binding assays at 0.1, 10, and 1000 nM as well as in 40 different receptor, uptake, and ion channel binding sites (A1, A2, α1, α2, β1, NE uptake, AT1, BZD, B2 (h), CCKA (˜CCK1), D1, D2, ETA(h), GABA, NMDA, H1, M, NK1(h), Y, N, opiate, PCP, 5-HT, 5-HT1B, 5-HT2A, 5-HT uptake, σ, V1) at 10 μM.

[3] = In vitro stability in heparinised human plasma; assay type: in vitro ADME
Protocol: In addition, the degradation of Compound 1 of the invention has been studied in heparinised human plama.
The stability of peptides is analysed in human plasma. The peptides are incubated at 37° C. in plasma and samples taken at approx. 8 regular intervals between t=0 and t=390 min for Compound 1 and nociceptin-NH2, and at 9 intervals between t=0 and t=32 min for Compound CE1 are analysed by HPLC. […] This is done by subsequent injections of the drug, plasma, and a co-injection with the drug and the plasma, followed by optimisation of the LC method parameters until a satisfactory separation is obtained. Three parallel experiments are performed for each plasma type. 100 μl of peptide is mixed with 900 μl plasma at t=0 and incubated at 37° C. (drug-plasma mixture conc. 0.1 mg/ml). Samples of 100 μl of the drug-plasma mixture are removed at appropriate intervals and the degradation stopped by precipitation of the sample with 10 μl MeCN:TFA 50:50 v/v. A control plasma sample without the drug treated in the same manner is also taken. The plasma samples are centrifuged for 15 min. at 12,000 rpm (Eppendorf centrifuge) at ambient temperature. The resulting supernatant solution is transferred to 300 μl HP autosamler vials and analyzed by HPLC. HPLC analysis are performed as follows:
Ac-RYYRWK-NH2 (SEQ ID NO: 1) and Compound 1
The samples are analysed in the following order: blank, the peptide at 0.1 mg/mL, the plasma without the peptide, the three parallel samples for t=0, the three parallel samples for t=5 min. the three parallel samples for t=60 min. etc. And finally the three parallel samples for t=0 are repeated to make sure that there have been no degradation or other failure during the analyses. The sample concentrations (peak height in mAU) are plotted vs. time and fitted to a function describing a mono exponential decay (Excel). The half-lives of the peptides in plasma are presented in Table 7 as mean (n=3)±standard deviation.

**Q.** Which half-life at 0.1 mg/mL [1] does the source give for “Ac-RYYRWKKKKKKK-NH2 [Compound 1, Ac-RYYRWKKKKKKK-NH2]” here?
**A.** 5.97 h

**Q.** What about the “potency order for inhibition of electrically-induced contraction of the mouse vas deferens” value (mouse vas deferens) of the same substance?
**A.** nociceptin>Compound 1=Compound 2>>Ac-RYYRWK-NH2

**Q.** What about the “binding to other receptors than the ORL1 receptor” value [2] of the same substance?
**A.** none or only weak binding to other receptors than the ORL1 receptor

**Q.** And the half-life at 0.1 mg/ml ([3]; 37° C., mean (n=3) +/− deviation, read-out: T1/2 in min (degradation in human heparinised plasma))?
**A.** 16.2 h

**Q.** What about the half-life at 0.1 mg/ml ([3]; read-out: half life in plasma) of the same substance?
**A.** > 16 h
